Measurements as given in US9499534B2, “Thiazole-substituted aminopyrimidines as spleen tyrosine kinase inhibitors” (priority 2013, dated 2016).

These molecules were tested against recombinant human GST-SYK (Homo sapiens (Human), UniProt P43405) (assay: Homogeneous Time-Resolved Fluorescence (HTRF) Assay for the Recombinant Human Syk Enzyme). Settings: GST-SYK 5 pM, ATP 25 μM, biotinylated substrate peptide 250 nM, HTRF signal.
Type: biochemical
Protocol: Homogeneous Time-Resolved Fluorescence (HTRF) Assay for the Recombinant Human Syk Enzyme
A recombinant GST-hSYK fusion protein was used to measure potency of compounds to inhibit human Syk activity. The recombinant human GST-SYK (Carna Biosciences #08-176) (5 pM final concentration) was incubated with various concentrations of the inhibitor diluted in DMSO (0.1% final concentration) for 10 minutes at room temperature in 15 mM Tris-HCl (pH 7.5), 0.01% tween 20, 2 mM DTT in 384 well plate format. To initiate the reaction the biotinylated substrate peptide (250 nM final concentration) that contains the phosphorylation site for Syk was added with magnesium (5 mM final concentration) and ATP (25 μM final concentration). Final volume of the reaction was 10 μL. Phosphorylation of the peptide was allowed to proceed for 45′ at room temperature. To quench the reaction and detect the phosphorylated product, 2 nM of a Europium-anti-phosphotyrosine antibody (Perkin Elmer #AD0161) and 70 nM SA-APC (Perkin-Elmer #CR130-100) were added together in 15 mM Tris pH 7.5, 40 mM EDTA, 0.01% tween 20. Final volume of the quenching solution was 10 μL.
The resulting HTRF signal was measured after 30 minutes on an EnVision (Perkin-Elmer) reader using a time-resolved fluorescence protocol. Table A below lists activities as IC50 values (nM) for representative compounds of the invention.

| Structure (SMILES) | IC50 [nM] |
| --- | --- |
| CC1(C)C[C@](O)(c2ncc(-c3cc(Nc4nccc(C(F)(F)F)n4)cc(-c4ccc(F)cc4)c3)s2)CC[C@H]1C(=O)O (single isomer, unassigned) [Example 2.6, (1R,4S or 1S,4R)-4-[5-(4′-fluoro-5-{[4-(trifluoromethyl)pyrimidin-2-yl]amino}biphenyl-3-yl)-1,3-thiazol-2-yl]-4-hydroxy-2,2-dimethylcyclohexanecarboxylic acid] | 20.7 |
| CC1(C)C[C@](O)(c2ncc(-c3cc(Nc4nccc(C(F)(F)F)n4)cc(-c4ccccc4Cl)c3)s2)CC[C@H]1C(=O)O (single isomer, unassigned) [Example 2.18, (1R,4S or 1S,4R)-4-[5-(2′-chloro-5-{[4-(trifluoromethyl)pyrimidin-2-yl]amino}biphenyl-3-yl)-1,3-thiazol-2-yl]-4-hydroxy-2,2-dimethylcyclohexanecarboxylic acid] | 37.1 |
| COc1ccc(-c2cc(Nc3nccc(C(F)(F)F)n3)cc(-c3cnc([C@]4(O)CC[C@@H](C(=O)O)C(C)(C)C4)s3)c2)cc1F (single isomer, unassigned) [Example 2.12, (1R,4S or 1S,4R)-4-[5-(3′-fluoro-4′-methoxy-5-{[4-(trifluoromethyl)pyrimidin-2-yl]amino}biphenyl-3-yl)-1,3-thiazol-2-yl]-4-hydroxy-2,2-dimethylcyclohexanecarboxylic acid] | 35.3 |
| CC1(C)C[C@](O)(c2ncc(-c3cc(Nc4nccc(C(F)(F)F)n4)cc(-c4ccc(C#N)c(F)c4)c3)s2)CC[C@H]1C(=O)O (single isomer, unassigned) [Example 3.3, (1R,4S or 1S,4R)-4-[5-(4′-cyano-3′-fluoro-5-{[4-(trifluoromethyl)pyrimidin-2-yl]amino}biphenyl-3-yl)-1,3-thiazol-2-yl]-4-hydroxy-2,2-dimethylcyclohexanecarboxylic acid] | 34.8 |
| C[C@@H]1C[C@@](O)(c2ncc(-c3cc(Nc4nccc(C(F)(F)F)n4)cc(-c4cn[nH]c4)c3)s2)CC[C@@H]1C(=O)O (racemic) [Example 1.2, rel-(1S,2R,4R or S)-4-(5-(3-(1H-pyrazol-4-yl)-5-((4-(trifluoromethyl)pyrimidin-2-yl)amino)phenyl)thiazol-2-yl)-4-hydroxy-2-methylcyclohexanecarboxylic acid] | 0.959 |
| C[S+]([O-])c1ccccc1-c1cc(Nc2nccc(C(F)(F)F)n2)cc(-c2cnc([C@]3(O)CC[C@@H](C(=O)O)C(C)(C)C3)s2)c1 (single isomer, unassigned) [Example 2.17, (1R,4S or 1S,4R)-4-hydroxy-2,2-dimethyl-4-{5-[2′-(methylsulfinyl)-5-{[4-(trifluoromethyl)pyrimidin-2-yl]amino}biphenyl-3-yl]-1,3-thiazol-2-yl}cyclohexanecarboxylic acid] | 15.3 |
| CC1(C)C[C@](O)(c2ncc(-c3cc(Nc4nccc(C(F)(F)F)n4)cc(C4=CCCCC4)c3)s2)CC[C@H]1C(=O)O (single isomer, unassigned) [Example 2.21, (1R,4S or 1S,4R)-4-[5-(3-cyclohex-1-en-1-yl-5-{[4-(trifluoromethyl)pyrimidin-2-yl]amino}phenyl)-1,3-thiazol-2-yl]-4-hydroxy-2,2-dimethylcyclohexanecarboxylic acid] | 17.6 |
| Cc1ccccc1-c1cc(Nc2nccc(C(F)(F)F)n2)cc(-c2cnc([C@]3(O)CC[C@@H](C(=O)O)C(C)(C)C3)s2)c1 (single isomer, unassigned) [Example 2.20, (1R,4S or 1S,4R)-4-hydroxy-2,2-dimethyl-4-[5-(2′-methyl-5-{[4-(trifluoromethyl)pyrimidin-2-yl]amino}biphenyl-3-yl)-1,3-thiazol-2-yl]cyclohexanecarboxylic acid] | 70.4 |
| CC1(C)C[C@](O)(c2ncc(-c3cc(Nc4nccc(C(F)(F)F)n4)cc(-c4cc[nH]n4)c3)s2)CC[C@H]1C(=O)O (single isomer, unassigned) [Example 2.11, (1R,4S or 1S,4R)-4-hydroxy-2,2-dimethyl-4-{5-[3-(1H-pyrazol-3-yl)-5-{[4-(trifluoromethyl)pyrimidin-2-yl]amino}phenyl]-1,3-thiazol-2-yl}cyclohexanecarboxylic acid] | 1.11 |
| CC1(C)C[C@@](O)(c2ncc(-c3cc(Nc4nccc(C(F)(F)F)n4)cc(-c4nccs4)c3)s2)CC[C@@H]1C(=O)O (single isomer, unassigned) [Example 3.1, (1R,4S or 1S,4R)-4-Hydroxy-2,2-dimethyl-4-(5-(3-(thiazol-2-yl)-5-((4-(trifluoromethyl)pyrimidin-2-yl)amino)phenyl)thiazol-2-yl)cyclohexanecarboxylic acid] | 2.5 |
| Cc1ccsc1-c1cc(Nc2nccc(C(F)(F)F)n2)cc(-c2cnc([C@]3(O)CC[C@@H](C(=O)O)C(C)(C)C3)s2)c1 (single isomer, unassigned) [Example 2.23, (1R,4S or 1S,4R)-4-hydroxy-2,2-dimethyl-4-{5-[3-(3-methylthiophen-2-yl)-5-{[4-(trifluoromethyl)pyrimidin-2-yl]amino}phenyl]-1,3-thiazol-2-yl}cyclohexanecarboxylic acid] | 10.1 |
| CC1(C)C[C@](O)(c2ncc(-c3cc(Nc4nccc(C(F)(F)F)n4)cc(-c4ccccc4F)c3)s2)CC[C@H]1C(=O)O (single isomer, unassigned) [Example 2.25, (1R,4S or 1S,4R)-4-[5-(2′-fluoro-5-{[4-(trifluoromethyl)pyrimidin-2-yl]amino}biphenyl-3-yl)-1,3-thiazol-2-yl]-4-hydroxy-2,2-dimethylcyclohexanecarboxylic acid] | 35.2 |
| CC1(C)C[C@](O)(c2ncc(-c3cc(Nc4nccc(C(F)(F)F)n4)cc(-c4cccc(F)c4F)c3)s2)CC[C@H]1C(=O)O (single isomer, unassigned) [Example 2.14, (1R,4S or 1S,4R)-4-[5-(2′,3′-difluoro-5-{[4-(trifluoromethyl)pyrimidin-2-yl]amino}biphenyl-3-yl)-1,3-thiazol-2-yl]-4-hydroxy-2,2-dimethylcyclohexanecarboxylic acid] | 12.9 |
| CC(C)(C)/C=C\c1cc(Nc2nccc(C(F)(F)F)n2)cc(-c2cnc([C@]3(O)CC[C@@H](C(=O)O)C(C)(C)C3)s2)c1 (single isomer, unassigned) [Example 2.29, (1R,4S or 1S,4R)-4-[5-(3-[(1Z)-3,3-dimethylbut-1-en-1-yl]-5-{[4-(trifluoromethyl)pyrimidin-2-yl]amino}phenyl)-1,3-thiazol-2-yl]-4-hydroxy-2,2-dimethylcyclohexanecarboxylic acid] | 16.8 |

More lines, now with the values ahead:

| IC50 [nM] | Structure (SMILES) |
| --- | --- |
| 5.77 | CC1(C)CC(O)(c2ncc(-c3cc(C#N)cc(Nc4nccc(C(F)(F)F)n4)c3)s2)CCC1C(=O)O (single isomer, unassigned) [Example 1.8, (1R,4S or 1S,4R)-4-[5-(3-cyano-5-{[4-(trifluoromethyl)pyrimidin-2-yl]amino}phenyl)-1,3-thiazol-2-yl]-4-hydroxy-2,2-dimethylcyclohexanecarboxylic acid] |
| 149 | CC(C)n1cc(-c2cc(Nc3nccc(C(F)(F)F)n3)cc(-c3cnc([C@]4(O)CC[C@@H](C(=O)O)C(C)(C)C4)s3)c2)cn1 (single isomer, unassigned) [Example 2.3, (1R,4S or 1S,4R)-4-hydroxy-2,2-dimethyl-4-[5-(3-[1-(1-methylethyl)-1H-pyrazol-4-yl]-5-{[4-(trifluoromethyl)pyrimidin-2-yl]amino}phenyl)-1,3-thiazol-2-yl]cyclohexanecarboxylic acid] |
| 5.1 | CC1(C)CC(O)(c2ncc(-c3cc(Nc4nccc(C(F)(F)F)n4)cc(S(C)(=O)=O)c3)s2)CCC1C(=O)O (single isomer, unassigned) [Example 1.9, (1R,4S or 1S,4R)-4-hydroxy-2,2-dimethyl-4-{5-[3-(methylsulfonyl)-5-{[4-(trifluoromethyl)pyrimidin-2-yl]amino}phenyl]-1,3-thiazol-2-yl}cyclohexanecarboxylic acid] |
| 48 | Cn1cc(-c2cc(Nc3nccc(C(F)(F)F)n3)cc(-c3cnc([C@@]4(O)CC[C@H](C(=O)O)C(C)(C)C4)s3)c2)cn1 (single isomer, unassigned) [Example 2.1, (1R,4S or 1S,4R)-4-Hydroxy-2,2-dimethyl-4-(5-(3-(1-methyl-1H-pyrazol-4-yl)-5-((4-(trifluoromethyl)pyrimidin-2-yl)amino)phenyl)thiazol-2-yl)cyclohexanecarboxylic acid] |
| 12.4 | CC1(C)C[C@](O)(c2ncc(-c3cc(Nc4nccc(C(F)(F)F)n4)cc(-c4cccs4)c3)s2)CC[C@H]1C(=O)O (single isomer, unassigned) [Example 3.2, (1R,4S or 1S,4R)-4-hydroxy-2,2-dimethyl-4-[5-(3-thiophen-2-yl-5-{[4-(trifluoromethyl)pyrimidin-2-yl]amino}phenyl)-1,3-thiazol-2-yl]cyclohexanecarboxylic acid] |
| 77.7 | OC1(c2ncc(-c3cc(Nc4nccc(C(F)(F)F)n4)cc(-c4nnn[nH]4)c3)s2)CCC1 [Example 1.4, 1-(5-(3-(1H-Tetrazol-5-yl)-5-((4-(trifluoromethyl)pyrimidin-2-yl)amino)phenyl)thiazol-2-yl)cyclobutanol] |
